Common to all, as to assay: NCI anticancer screen, dose series, 48 h
Experiment [1] deals with 786-0.
The subject of experiment [2] is ACHN.
The subject of experiment [3] is CCRF-CEM.
In experiment [4] the test system is COLO 205.
Experiment [5] deals with DU-145.
The subject of experiment [6] is HCC 2998.
For experiment [7], the system named is HCT-116.
Experiment [8] has as its system HOP-92.
In experiment [9] the test system is HT-29.
The subject of experiment [10] is M14.
Experiment [11] has as its system MCF7.
The test system of experiment [12] is NCI-H226.
The subject of experiment [13] is NCI-H460.
Experiment [14] deals with NCI/ADR-RES.
The test system of experiment [15] is PC-3.
Experiment [16] relates to SK-MEL-28.
The subject of experiment [17] is SK-OV-3.
In experiment [18] the test system is SN12C.
In experiment [19] the test system is SNB-19.
The subject of experiment [20] is SR.

This is an account of results in ChEMBL document CHEMBL1201862, “PubChem BioAssay data set” (2004).

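Each compound was tested at five concentrations against cells in 96-well plates for 48 hours. GI50 is the concentration that inhibits growth by half.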 Activity calls are given as the source filed them. Rule as the data show it: active = GI50 up to about 1.1 µM and inactive = higher.

Regarding `c1ccc(COc2nc3cc(C45CC6CC(CC(C6)C4)C5)ccc3[nH]2)cc1`, the GI50 in experiment [1] was 14.9 µM (inactive); in [2] it was 14.6 µM (inactive); in [3] it was 10.2 µM (inactive); in experiment [4], 4.01 µM (inactive); in experiment [5], 20.1 µM (inactive); in [6], 9.68 µM (inactive). Further, the GI50 in [7] is 9.08 µM (inactive); in experiment [8] it was 7.29 µM (inactive); in [9] it was 3.53 µM (inactive); in experiment [10] it was 17.2 µM (inactive); in [11] it was 4.7 µM (inactive); in [12] it was 12 µM (inactive). The GI50 in [13] is 9.2 µM (inactive); in experiment [14], 7.45 µM (inactive); in [15], 9.06 µM (inactive); in [16] it was 17.1 µM (inactive); in experiment [17], 29.8 µM (inactive); in [18] it was 18.5 µM (inactive). Moreover, the GI50 in experiment [19] is 24.8 µM (inactive); in [20], > 100 µM (inactive).

With `CC1=C(N2CC2)C(=O)C(C)=C(N2CC2)C1=O`, the GI50 was 0.0702 µM (active) in [1]; 0.0315 µM (active) in experiment [2]; 0.0434 µM (active) in experiment [3]; 0.206 µM (active) in experiment [4]; 0.0469 µM (active) in [5]; 0.161 µM (active) in experiment [6]. Further, the GI50 in experiment [7] was 0.206 µM (active); in experiment [8], 0.17 µM (active); in [9], 0.175 µM (active); in [10] it was 0.189 µM (active); in experiment [11], 0.0212 µM (active); in experiment [12] it was 0.309 µM (active). In addition, the GI50 in [13] is < 0.0111 µM (active); in [14], 0.0221 µM (active); in experiment [15], 0.282 µM (active); in experiment [16], 0.356 µM (active); in [17], 0.31 µM (active); in experiment [18], 0.113 µM (active). In addition, the results for the GI50 in experiment [19] and in [20] were 0.348 µM (active) and 0.05 µM (active), respectively.

Turning to `CCCCCCc1cc(C=O)sc1-c1ccc(-c2sc(-c3ccc(-c4ccc(-c5cc(CCCCCC)c(-c6ccc(-c7sc(C=O)cc7CCCCCC)s6)s5)s4)s3)cc2CCCCCC)s1`, the GI50 in experiment [1], in [2], in [3], in experiment [4], in experiment [5] and in experiment [6] was > 100 µM (inactive) throughout. In addition, the GI50 in experiment [7] was > 100 µM (inactive); in experiment [8], > 100 µM (inactive); in [9], > 100 µM (inactive); in [10], > 100 µM (inactive); in experiment [11] it was > 100 µM (inactive); in experiment [12], 28.4 µM (inactive). Besides, the GI50 in [13], in [14], in experiment [15], in experiment [16], in experiment [17] and in experiment [18] was > 100 µM (inactive) throughout. Besides, the GI50 in experiment [19] and in [20] was > 100 µM (inactive) in each case.

In the case of `CCN1c2cc(Br)cc3[nH]c(=O)n(c23)CCC1C` (stereo not given), the GI50 is 14.3 µM (inactive) in experiment [1]; 19.5 µM (inactive) in experiment [2]; 12 µM (inactive) in experiment [3]; 14.9 µM (inactive) in experiment [4]; 18.3 µM (inactive) in experiment [5]; 15.6 µM (inactive) in experiment [6]. Also, the GI50 in experiment [7] is 14.8 µM (inactive); in experiment [8] it was 1.49 µM (inactive); in experiment [9], 15.6 µM (inactive); in experiment [10], 17.2 µM (inactive); in experiment [11], 19.7 µM (inactive); in experiment [12] it was 15.8 µM (inactive). The GI50 in [13] is 17 µM (inactive); in experiment [14], 5.7 µM (inactive); in [15] it was 17.2 µM (inactive); in experiment [16], 18.7 µM (inactive); in [17] it was 19.4 µM (inactive); in experiment [18] it was 16.7 µM (inactive). Moreover, the values for the GI50 in experiment [19] and in [20] were 23.2 µM (inactive) and 6.56 µM (inactive), respectively.
